# pIC50, pKi: −log10 of the molar value. “Also recorded” adds a separate entry of the source. Read-outs that look alike come from different tables or passages of the source.
# Columns and labels:
# T. foetus HGXPRT = target: T1, T. foetus HGXPRT (Tritrichomonas foetus, UniProt P51900); assay: Spectrophotometric enzyme assay, recombinant T. foetus HGXPRT; type: biochemical; details: for increase in affinity for T. foetus HGXPRT (lower IC50) compared to compound Ia(1): relative to compound Ia(1); for potency of combined 2-methyl / benzyl-substituted inhibitors relative to parent inhibitors: compared with Ia(4), Ia(5), Ia(6)
# T1 construct: made in house; host or cells: E. coli strain SØ606 transformed with pBTfprt
# T1 sequence (P51900 1-183): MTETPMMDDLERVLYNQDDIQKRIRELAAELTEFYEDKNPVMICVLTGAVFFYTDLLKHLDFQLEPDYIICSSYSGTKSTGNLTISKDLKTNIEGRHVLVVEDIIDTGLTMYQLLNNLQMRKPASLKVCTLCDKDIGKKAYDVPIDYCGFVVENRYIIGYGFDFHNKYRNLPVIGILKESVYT
# Protocol: (§1) Enzyme Assays: Recombinant T. foetus HGXPRT and human HGPRT were isolated from E. coli strain S.O slashed.606, transformed with pBTfprt and pBAcprt expression plasmids, respectively (Chin, et al., Mol. Biochem. Parasitol. 63:221-229 (1994); Kanaaneh, et al., Eur. J. Biochem. 223:595-601 (1994)). Spectrophotometric enzyme assays were performed as described in Yuan, et al., Biochemistry 31:806-810 (1992). The compounds tested were dissolved in DMSO-d6, and concentrations were determined by integration of NMR peaks with methylene chloride as an internal standard. The concentration of DMSO in the assays was kept at 10%.
# [1] = tested on: T. foetus strain kv1 trophozoites; assay: Cell culture assay, in vitro growth of T. foetus; type: cell-based, Tritrichomonas foetus; details: for pIC50: Tritrichomonas foetus
# Protocol: Cell Culture Assays: T. foetus strain kv1 trophozoites were cultivated in Diamond's TYM medium at 37° C. Cell densities in time samples were determined using a hemocytometer. The concentration of DMSO in culture medium was maintained at or below 1%, which had no apparent effect on cell growth.
# Indeed, compound Ia(5)-induced inhibition of T. foetus growth was reversed by increasing the concentration of hypoxanthine in the growth medium. A minimum hypoxanthine concentration between 0.2 and 0.5 mM was required for the survival of the cells challenged with 5 μM of compound Ia(5). Hypoxanthine at concentrations>1 mM essentially abolished any inhibition of cell proliferation under these experimental conditions.
# human HGPRT = target: T2, human HGPRT (Homo sapiens, UniProt P00492); assay: Spectrophotometric enzyme assay, recombinant human HGPRT; type: biochemical; details: for pIC50: Table 2, read-out: IC50, Human HGXPRT; for selectivity for T. foetus HGXPRT over human HGPRT: ratio of human HGPRT to T. foetus HGXPRT inhibition
# T2 construct: made in house; host or cells: E. coli strain SØ606 transformed with pBAcprt
# T2 sequence (P00492 1-218): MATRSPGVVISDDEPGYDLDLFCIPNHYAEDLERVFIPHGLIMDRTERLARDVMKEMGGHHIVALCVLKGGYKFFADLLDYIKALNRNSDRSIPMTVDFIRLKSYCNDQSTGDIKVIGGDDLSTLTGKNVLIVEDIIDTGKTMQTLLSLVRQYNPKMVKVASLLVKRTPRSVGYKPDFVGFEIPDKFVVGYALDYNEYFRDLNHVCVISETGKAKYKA
# Protocol: as §1
# [2] = Table 1, Diamond's TYM medium, 37° C., DMSO at or below 1%, read-out: ED50, in vitro growth of T. foetus
# [3] = read-out: IC50 values, T. foetus HGXPRT
# [4] = Table 1, 10% DMSO, read-out: IC50, Inhibition of T. foetus HGXPRT
smiles,measurement,setting,value
"O=C(Nc1ccc(Cl)c(Cl)c1)c1ccc2c(c1)C(=O)NC2=O [(4'-phthalimido)carboxamido-3,4-dichlorobenzene, reference compound]","activity on HGXPRT compared with 5-[N-(3,4-dichlorophenyl)carbamoyl]-1,3-isobenzofurandione",T. foetus HGXPRT; comparison of the phthalimide with its phthalic anhydride analog,equally active
O=C(Nc1cccc(OCc2ccccc2)c1)c1ccc2c(c1)C(=O)NC2=O [Compound Ia(1)],pIC50,[1]; [2],4.72
same,pIC50,T. foetus HGXPRT; [3],4.80
"O=C(Nc1cccc(OCc2ccc(Br)cc2)c1)c1ccc2c(c1)C(=O)NC2=O [Compound Ia(5), (4'-phthalimido)carboxamido-3-(4-bromobenzyloxy)-benzene]",pIC50,human HGPRT,4.35
same,selectivity for T. foetus HGXPRT over human HGPRT,human HGPRT,30 fold
same,concentration dependence of inhibition of T. foetus growth in culture,[1],concentration-dependent
same,pIC50,"[1]; read-out: ED50, growth of cultured T. foetus cells",5.55
same,hypoxanthine concentration that essentially abolished any inhibition of cell proliferation,[1]; cells challenged with 5 μM of compound,> 1 mM
same,reversal of growth inhibition by exogenous hypoxanthine,[1]; increasing hypoxanthine in the growth medium,reversed
same,pIC50,T. foetus HGXPRT; [4],5.82
same,pKi,"T. foetus HGXPRT; competitive with respect to guanine, read-out: K (inhibition constant) with respect to guanine, T. foetus HGXPRT",6.31
same,increase in affinity for T. foetus HGXPRT (lower IC50) compared to compound Ia(1),T. foetus HGXPRT,10 fold
same,mode of inhibition of T. foetus HGXPRT,T. foetus HGXPRT; with respect to guanine,competitive inhibitor; also recorded: competitive mode of inhibition
O=C(Nc1cccc(OCc2ccc(Cl)c(Cl)c2)c1)c1ccc2c(c1)C(=O)NC2=O [Compound Ia(12)],pIC50,human HGPRT,4.62
same,pIC50,[1]; [2],5.34
same,pIC50,T. foetus HGXPRT; [4],5.46
same,increase in affinity for T. foetus HGXPRT (lower IC50) compared to compound Ia(1),T. foetus HGXPRT,~5 fold
"Cc1cc(COc2ccccc2)cc(NC(=O)c2ccc3c(c2)C(=O)NC3=O)c1 [Ia(2), (4'-Phthalimido)Carboxamido-3-Methyl-5-Phenoxymethylbenzene]",pIC50,T. foetus HGXPRT; [4],4.55
"O=C(Nc1cc(OCc2ccccc2)ccc1Cl)c1ccc2c(c1)C(=O)NC2=O [Ia(3), (4'-Phthalimido)Carboxamido-3-Benzyloxy-6-Chlorobenzene]",pIC50,T. foetus HGXPRT; [4],5.10
Cc1c(NC(=O)c2ccc3c(c2)C(=O)NC3=O)cccc1OCc1ccccc1 [Ia(4)],pIC50,human HGPRT,< 4.30
same,selectivity for T. foetus HGXPRT over human HGPRT,human HGPRT,approximately 100 fold
same,pIC50,[1]; [2],5.41
same,pIC50,T. foetus HGXPRT; [4],5.52
Cc1ccc(COc2cccc(NC(=O)c3ccc4c(c3)C(=O)NC4=O)c2)cc1 [Ia(6)],pIC50,T. foetus HGXPRT; [4],5.77
same,increase in affinity for T. foetus HGXPRT (lower IC50) compared to compound Ia(1),T. foetus HGXPRT,10 fold
COc1cc(COc2cccc(NC(=O)c3ccc4c(c3)C(=O)NC4=O)c2)cc(OC)c1 [Ia(7)],pIC50,T. foetus HGXPRT; [4],5.09
O=C(Nc1cccc(OCc2cccc(I)c2)c1)c1ccc2c(c1)C(=O)NC2=O [Ia(9)],pIC50,T. foetus HGXPRT; [4],5.05
O=C(Nc1cccc(OCc2ccccc2I)c1)c1ccc2c(c1)C(=O)NC2=O [Ia(10)],pIC50,human HGPRT,< 4.30
same,selectivity for T. foetus HGXPRT over human HGPRT,human HGPRT,approximately 100 fold
same,pIC50,[1]; [2],5.29
same,pIC50,T. foetus HGXPRT; [4],5.37
O=C(Nc1cccc(OCc2c(Cl)cccc2Cl)c1)c1ccc2c(c1)C(=O)NC2=O [Ia(13)],pIC50,T. foetus HGXPRT; [4],4.92
O=C(Nc1cccc(OCc2cc(Cl)ccc2Cl)c1)c1ccc2c(c1)C(=O)NC2=O [Ia(14)],pIC50,T. foetus HGXPRT; [4],5.15
Cc1c(NC(=O)c2ccc3c(c2)C(=O)NC3=O)cccc1OCc1ccc(Br)cc1 [Ia(15)],pIC50,T. foetus HGXPRT; [4],5.28
same,potency of combined 2-methyl / benzyl-substituted inhibitors relative to parent inhibitors,T. foetus HGXPRT,less potency
Cc1c(NC(=O)c2ccc3c(c2)C(=O)NC3=O)cccc1OCc1ccc(Cl)c(Cl)c1 [Ia(16)],pIC50,T. foetus HGXPRT; [4],5.03
same,potency of combined 2-methyl / benzyl-substituted inhibitors relative to parent inhibitors,T. foetus HGXPRT,less potency
CCN(CC)S(=O)(=O)c1ccc(OC)c(NC(=O)c2ccc3c(c2)C(=O)NC3=O)c1 [Ib(1)],pIC50,[1]; [2],4.41
same,pIC50,T. foetus HGXPRT; [4],4.48
CN(Cc1ccccc1NC(=O)c1ccc2c(c1)C(=O)NC2=O)C1CCCCC1 [Ic(1)],pIC50,T. foetus HGXPRT; [4],4.28
O=C(Nc1cccc2c1C(=O)NC2=O)c1ccc2c(c1)C(=O)NC2=O [Id(1)],pIC50,T. foetus HGXPRT; [3],5.30

# Reference: patent publication US6221877A, “Substituted 4-phthalimidocarboxanilides as inhibitors of purine salvage phosphoribosyltransferases” (Regents of the University of California, priority 2000, dated 2001)
